Measured values from BindingDB's records for patent US8563553 (Novartis, 2013).

Biological target: Serine/threonine-protein kinase B-raf [V600E] (Homo sapiens, UniProt P15056, V600E)
Test: Raf/Mek Amplified Luminescence Proximity Homogeneous Assay
Details: pH 7.5
Source text: Raf/Mek amplified luminescence proximity homogeneous assay.

Serine/threonine-protein kinase B-raf [V600E], sequence (P15056 2-766 V600E limits assumed): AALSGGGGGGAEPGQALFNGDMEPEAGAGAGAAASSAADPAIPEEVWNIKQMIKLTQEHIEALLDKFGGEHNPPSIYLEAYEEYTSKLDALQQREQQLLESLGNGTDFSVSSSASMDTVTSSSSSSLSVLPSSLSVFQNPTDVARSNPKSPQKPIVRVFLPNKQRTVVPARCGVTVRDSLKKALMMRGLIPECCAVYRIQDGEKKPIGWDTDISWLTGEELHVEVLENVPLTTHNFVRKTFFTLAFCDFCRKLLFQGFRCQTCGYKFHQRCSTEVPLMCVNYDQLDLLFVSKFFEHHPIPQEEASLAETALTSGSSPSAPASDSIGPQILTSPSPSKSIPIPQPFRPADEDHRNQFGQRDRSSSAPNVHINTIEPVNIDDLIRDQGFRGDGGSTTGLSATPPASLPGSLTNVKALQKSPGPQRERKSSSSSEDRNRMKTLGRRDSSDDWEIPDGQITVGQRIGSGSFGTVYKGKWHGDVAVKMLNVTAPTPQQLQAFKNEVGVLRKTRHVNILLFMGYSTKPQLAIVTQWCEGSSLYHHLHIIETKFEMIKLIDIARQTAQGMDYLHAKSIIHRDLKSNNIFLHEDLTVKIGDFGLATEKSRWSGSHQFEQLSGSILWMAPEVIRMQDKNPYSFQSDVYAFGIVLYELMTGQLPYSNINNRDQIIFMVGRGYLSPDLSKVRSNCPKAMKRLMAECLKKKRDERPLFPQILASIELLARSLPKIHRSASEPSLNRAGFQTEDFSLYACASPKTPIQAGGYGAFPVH

IC50: 235 nM
SMILES: COC(=O)N[C@@H](C)CNc1nccc(-c2nc(C(C)(C)C)[nH]c2-c2cc(Cl)cc(NS(=O)(=O)C(F)(F)F)c2)n1 [US8563553, 52]
